Active and inactive are the calls of the source. How the calls were made is not given here.
System: rodent carcinogenicity bioassays, tumor incidence
Assay: CCRIS carcinogenicity studies
Details: Dose: 0, Dose: 0
Outline: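 Archive of carcinogenicity, mutagenicity, tumor promotion and tumor inhibition results drawn from journals, NCI reports and other sources, expert-reviewed; covers 1985-2011 and is no longer updated.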

Compound: CCCSP(=O)(OCC)SCCC
- carcinogen call (Species: Mouse, Strain/Sex: B6C3F1/Female (50/Group), Route: Oral, 0.2, 2, 30 ppm of 94.6% ethoprop in diet for 104 wk, study duration 104 wk, 0.2, 2, 30 ppm of 94.6% ethoprop in diet for 104 wk, study duration 104 wk): inactive; negative
- carcinogen call (Species: Mouse, Strain/Sex: B6C3F1/Male (50/Group), Route: Oral, 0.2, 2, 30 ppm of 94.6% ethoprop in diet for 104 wk, study duration 104 wk, 0.2, 2, 30 ppm of 94.6% ethoprop in diet for 104 wk, study duration 104 wk): inactive; negative
- carcinogen call (Species: Rat, Strain/Sex: Crl:CD(SD)BR VAF/Plus/Female (80-90/Group), Route: Oral, 60, 400 (reduced from 600 during wk 3) ppm of 95.6% ethoprop in diet for 104 wk, study duration 104 wk, 60, 400 (reduced from 600 during wk 3) ppm of 95.6% ethoprop in diet for 104 wk, study duration 104 wk): inactive; negative
- carcinogen call (Species: Rat, Strain/Sex: Crl:CD(SD)BR VAF/Plus/Male (80-90/Group), Route: Oral, 60, 400 (reduced from 600 during wk 3) ppm of 95.6% ethoprop in diet for 104 wk, study duration 104 wk, 60, 400 (reduced from 600 during wk 3) ppm of 95.6% ethoprop in diet for 104 wk, study duration 104 wk): inactive; negative

Compound: Clc1cc2c(c(Cl)c1Cl)Oc1cc(Cl)c(Cl)c(Cl)c1O2
- carcinogen call (Species: MOUSE, Strain/Sex: B6C3F1/FEMALE, Route: GAVAGE, 2.5, 5.0, 10.0 UG/KG/WK (9:1 CORN OIL-ACETONE, 2 D/WK) FOR 104 WK (STUDY DURATION: 105-108 WK), 2.5, 5.0, 10.0 UG/KG/WK (9:1 CORN OIL-ACETONE, 2 D/WK) FOR 104 WK (STUDY DURATION: 105-108 WK), Tumor Site: Type of Lesion: LIVER: HEPATOCELLULAR ADENOMA OR CARCINOMA): active; positive
- carcinogen call (Species: MOUSE, Strain/Sex: B6C3F1/MALE, Route: GAVAGE, 1.25, 2.5, 5 UG/KG/WK (9:1 CORN OIL-ACETONE, 2 D/WK) FOR 104 WK (STUDY DURATION: 105-108 WK), 1.25, 2.5, 5 UG/KG/WK (9:1 CORN OIL-ACETONE, 2 D/WK) FOR 104 WK (STUDY DURATION: 105-108 WK), Tumor Site: Type of Lesion: LIVER: HEPATOCELLULAR ADENOMA, CARCINOMA): active; positive
- carcinogen call (Species: MOUSE, Strain/Sex: SWISS/FEMALE, Route: DERMAL, 0.01 UG (SUSPENDED IN 0.1 ML ACETONE APPLIED 3 DAYS/WK)): inactive; negative
- carcinogen call (Species: MOUSE, Strain/Sex: SWISS/MALE, Route: DERMAL, 0.01 UG (SUSPENDED IN 0.1 ML ACETONE APPLIED 3 DAYS/WK)): inactive; negative
- carcinogen call (Species: RAT, Strain/Sex: OSBORNE-MENDEL/FEMALE, Route: GAVAGE, 1.25, 2.5, 5 UG/KG/WK (9:1 CORN OIL-ACETONE, 2 D/WK) FOR 104 WK (STUDY DURATION: 105-108 WK), 1.25, 2.5, 5 UG/KG/WK (9:1 CORN OIL-ACETONE, 2 D/WK) FOR 104 WK (STUDY DURATION: 105-108 WK), Tumor Site: Type of Lesion: LIVER: NEOPLASTIC NODULE, HEPATOCELLULAR CARCINOMA): active; positive
- carcinogen call (Species: RAT, Strain/Sex: OSBORNE-MENDEL/MALE, Route: GAVAGE, 1.25, 2.5, 5 UG/KG/WK (9:1 CORN OIL-ACETONE, 2 D/WK) FOR 104 WK (STUDY DURATION: 105-108 WK), 1.25, 2.5, 5 UG/KG/WK (9:1 CORN OIL-ACETONE, 2 D/WK) FOR 104 WK (STUDY DURATION: 105-108 WK), Tumor Site: Type of Lesion: LIVER: NEOPLASTIC NODULE, HEPATOCELLULAR CARCINOMA): equivocal

Compound: Nc1ccn([C@H]2CC[C@@H](CO)O2)c(=O)n1
- carcinogen call (Species: MOUSE, Strain/Sex: B6C3F1/FEMALE, Route: GAVAGE, 500, 1000 MG/KG BW A DAY FOR 6 MO (STUDY DURATION: 6 MO), 500, 1000 MG/KG BW A DAY FOR 6 MO (STUDY DURATION: 6 MO), Tumor Site: Type of Lesion: THYMUS: LYMPHOMA): active; positive
- carcinogen call (Species: MOUSE, Strain/Sex: B6C3F1/FEMALE, Route: GAVAGE, 500, 1000 MG/KG/D FOR 13 WK (STUDY DURATION: 13 WK), 500, 1000 MG/KG/D FOR 13 WK (STUDY DURATION: 13 WK)): inactive; negative
- carcinogen call (Species: MOUSE, Strain/Sex: B6C3F1/FEMALE, Route: GAVAGE, 500, 1000 MG/KG/D FOR 13 WK FOLLOWED BY 4 WK OF RECOVERY (STUDY DURATION: 17 WK), 500, 1000 MG/KG/D FOR 13 WK FOLLOWED BY 4 WK OF RECOVERY (STUDY DURATION: 17 WK)): inactive; negative
- carcinogen call (Species: MOUSE, Strain/Sex: B6C3F1/FEMALE, Route: GAVAGE, 500, 1000 MG/KG/D FOR 13 WK FOLLOWED BY 13 WK FOR RECOVERY (STUDY DURATION: 26 WK), 500, 1000 MG/KG/D FOR 13 WK FOLLOWED BY 13 WK FOR RECOVERY (STUDY DURATION: 26 WK), Tumor Site: Type of Lesion: THYMUS: LYMPHOMA): active; positive
- carcinogen call (Species: MOUSE, Strain/Sex: B6C3F1/FEMALE, Route: GAVAGE, 1000 MG/KG BW A DAY FOR 3 MO FOLLOWED BY A 3-MO RECOVERY PERIOD (STUDY DURATION: 6 MO), Tumor Site: Type of Lesion: THYMUS: LYMPHOMA, SPLEEN: LYMPHOMA): active; positive
- carcinogen call (Species: MOUSE, Strain/Sex: B6C3F1/MALE, Route: GAVAGE, 500, 1000 MG/KG BW A DAY FOR 6 MO (STUDY DURATION: 6 MO), 500, 1000 MG/KG BW A DAY FOR 6 MO (STUDY DURATION: 6 MO), Tumor Site: Type of Lesion: THYMUS: LYMPHOMA): active; positive
- carcinogen call (Species: MOUSE, Strain/Sex: B6C3F1/MALE, Route: GAVAGE, 500, 1000 MG/KG/D FOR 13 WK (STUDY DURATION: 13 WK), 500, 1000 MG/KG/D FOR 13 WK (STUDY DURATION: 13 WK)): inactive; negative
- carcinogen call (Species: MOUSE, Strain/Sex: B6C3F1/MALE, Route: GAVAGE, 1000 MG/KG BW A DAY FOR 3 MO FOLLOWED BY A 3 MO RECOVERY PERIOD (STUDY DURATION: 6 MO), Tumor Site: Type of Lesion: THYMUS: LYMPHOMA): active; positive
- carcinogen call (Species: MOUSE, Strain/Sex: NIH SWISS/FEMALE, Route: GAVAGE, 500, 1000 MG/KG BW A DAY FOR 6 MO (STUDY DURATION: 6 MO), 500, 1000 MG/KG BW A DAY FOR 6 MO (STUDY DURATION: 6 MO), Tumor Site: Type of Lesion: THYMUS: LYMPHOMA, SPLEEN: LYMPHOMA, LYMPH NODE: LYMPHOMA, Tumor Site: Type of Lesion: THYMUS: LYMPHOMA, SPLEEN: LYMPHOMA, LYMPH NODE: LYMPHOMA): active; positive
- carcinogen call (Species: MOUSE, Strain/Sex: NIH SWISS/FEMALE, Route: GAVAGE, 1000 MG/KG BW A DAY FOR 3 MO FOLLOWED BY A 3-MO RECOVERY PERIOD (STUDY DURATION: 6 MO), Tumor Site: Type of Lesion: THYMUS: LYMPHOMA, SPLEEN: LYMPHOMA, LYMPH NODE: LYMPHOMA, Tumor Site: Type of Lesion: THYMUS: LYMPHOMA, SPLEEN: LYMPHOMA, LYMPH NODE: LYMPHOMA): active; positive
- carcinogen call (Species: MOUSE, Strain/Sex: NIH SWISS/MALE, Route: GAVAGE, 500, 1000 MG/KG BW A DAY FOR 6 MO (STUDY DURATION: 6 MO), 500, 1000 MG/KG BW A DAY FOR 6 MO (STUDY DURATION: 6 MO), Tumor Site: Type of Lesion: THYMUS: LYMPHOMA): active; positive
- carcinogen call (Species: MOUSE, Strain/Sex: NIH SWISS/MALE, Route: GAVAGE, 1000 MG/KG BW A DAY FOR 3 MO FOLLOWED BY A 3-MO RECOVERY PERIOD (STUDY DURATION: 6 MO), Tumor Site: Type of Lesion: THYMUS: LYMPHOMA): active; positive

Compound: CC(=O)N(O)c1ccc(-c2ccccc2)cc1
- carcinogen call (Species: RAT, Strain/Sex: STRAIN-CD/FEMALE, Route: INTRAPERITONEAL, 100 UMOL/KG BW 2/WK FOR 6 WK (STUDY DURATION: 62 WK)): inactive; negative

Compound: CO[C@H]1C[C@]2(C)[C@@H](O)CC[C@H]2[C@@H]2CCc3cc(O)ccc3[C@H]21
- carcinogen call (Species: HAMSTER, Strain/Sex: SYRIAN/MALE, Route: SUBCUTANEOUS IMPLANT, 20 MG IN PELLETS IMPLANTED EVERY 2.5 MO FOR 9 MO (STUDY DURATION: 9 MO), Tumor Site: Type of Lesion: KIDNEY: TUMOR): active; positive

Compound: O=S(=O)(O)c1ccc(N=Nc2c(O)ccc3ccccc23)cc1
- carcinogen call (Species: MOUSE, Strain/Sex: SWISS-WEBSTER/FEMALE, Route: DERMAL, 1% IN 0.1 ML DISTILLED WATER 1/WK FOR 18 MO (STUDY DURATION: 18 MO)): inactive; negative
- carcinogen call (Species: MOUSE, Strain/Sex: SWISS-WEBSTER/MALE, Route: DERMAL, 1% IN 0.1 ML DISTILLED WATER 1/WK FOR 18 MO (STUDY DURATION: 18 MO)): inactive; negative

Compound: O[C@@H]1[C@@H](O)[C@@H](O)OC[C@H]1O
- carcinogen call (Species: RAT, Strain/Sex: F344/FEMALE, Route: ORAL (DIET), 2.5%, 5% FOR 104 WKS (STUDY DURATION: 104 WKS), 2.5%, 5% FOR 104 WKS (STUDY DURATION: 104 WKS)): inactive; negative
- carcinogen call (Species: RAT, Strain/Sex: F344/MALE, Route: ORAL (DIET), 2.5%, 5% FOR 104 WKS (STUDY DURATION: 104 WKS), 2.5%, 5% FOR 104 WKS (STUDY DURATION: 104 WKS)): inactive; negative
